How the values were obtained:
Assay type in all cases: functional
[1] = test system: NCI-H23; experiment: Growth inhibition of human NCI-H23 cells after 48 hrs by sulforhodamine B colorimetric assay; conditions: NCI-H23, 48 h
[2] = test system: NCI-H522; experiment: Growth inhibition of human NCI-H522 cells after 48 hrs by sulforhodamine B colorimetric assay; conditions: NCI-H522, 48 h
[3] = test system: A549; experiment: Growth inhibition of human A549 cells after 48 hrs by sulforhodamine B colorimetric assay; conditions: A549, 48 h, read-out: pGI50 (converted)
[4] = Growth inhibition of human DMS273 cells after 48 hrs by sulforhodamine B colorimetric assay; conditions: DMS-273, 48 h
[5] = test system: SK-OV-3; experiment: Growth inhibition of human SKOV3 cells after 48 hrs by sulforhodamine B colorimetric assay; conditions: SK-OV-3, 48 h, read-out: pGI50 (converted)
[6] = Growth inhibition of human RXF631L cells after 48 hrs by sulforhodamine B colorimetric assay; conditions: RXF 631, 48 h, read-out: pGI50 (converted)
[7] = Growth inhibition of human HBC4 cells after 48 hrs by sulforhodamine B colorimetric assay; conditions: HBC4, 48 h, read-out: pGI50 (converted)
[8] = test system: MCF7; experiment: Growth inhibition of human MCF7 cells after 48 hrs by sulforhodamine B colorimetric assay; conditions: MCF7, 48 h
[9] = test system: U-251; experiment: Growth inhibition of human U251 cells after 48 hrs by sulforhodamine B colorimetric assay; conditions: U-251, 48 h, read-out: pGI50 (converted)
[10] = test system: SF-268; experiment: Growth inhibition of human SF268 cells after 48 hrs by sulforhodamine B colorimetric assay; conditions: SF-268, 48 h, read-out: pGI50 (converted)
[11] = Growth inhibition of human SF295 cells after 48 hrs by sulforhodamine B colorimetric assay; conditions: SF-295, 48 h
[12] = Growth inhibition of human SF539 cells after 48 hrs by sulforhodamine B colorimetric assay; conditions: SF-539, 48 h, read-out: pGI50 (converted)
[13] = Growth inhibition of human SNB78 cells after 48 hrs by sulforhodamine B colorimetric assay; conditions: SNB-78, 48 h, read-out: pGI50 (converted)
[14] = test system: NCI-H226; experiment: Growth inhibition of human NCI-H226 cells after 48 hrs by sulforhodamine B colorimetric assay; conditions: NCI-H226, 48 h, read-out: pGI50 (converted)
[15] = test system: NCI-H460; experiment: Growth inhibition of human NCI-H460 cells after 48 hrs by sulforhodamine B colorimetric assay; conditions: NCI-H460, 48 h, read-out: pGI50 (converted)
[16] = Growth inhibition of human DMS114 cells after 48 hrs by sulforhodamine B colorimetric assay; conditions: DMS-114, 48 h
[17] = Growth inhibition of human LOXIMVI cells after 48 hrs by sulforhodamine B colorimetric assay; conditions: LOX IMVI
[18] = Growth inhibition of human OVCAR3 cells after 48 hrs by sulforhodamine B colorimetric assay; conditions: OVCAR-3, 48 h, read-out: pGI50 (converted)
[19] = Growth inhibition of human OVCAR4 cells after 48 hrs by sulforhodamine B colorimetric assay; conditions: OVCAR-4, 48 h, read-out: pGI50 (converted)
[20] = Growth inhibition of human OVCAR5 cells after 48 hrs by sulforhodamine B colorimetric assay; conditions: OVCAR-5, 48 h, read-out: pGI50 (converted)
[21] = Growth inhibition of human OVCAR8 cells after 48 hrs by sulforhodamine B colorimetric assay; conditions: OVCAR-8, 48 h, read-out: pGI50 (converted)
[22] = test system: ACHN; experiment: Growth inhibition of human ACHN cells after 48 hrs by sulforhodamine B colorimetric assay; conditions: read-out: pGI50 (converted)
[23] = test system: St-4; experiment: Growth inhibition of human St-4 cells after 48 hrs by sulforhodamine B colorimetric assay; conditions: St-4, 48 h, read-out: pGI50 (converted)
[24] = Growth inhibition of human MKN1 cells after 48 hrs by sulforhodamine B colorimetric assay; conditions: MKN-1, 48 h, read-out: pGI50 (converted)
[25] = Growth inhibition of human MKN7 cells after 48 hrs by sulforhodamine B colorimetric assay; conditions: MKN-7, 48 h
[26] = Growth inhibition of human MKN28 cells after 48 hrs by sulforhodamine B colorimetric assay; conditions: MKN-28, 48 h
[27] = Growth inhibition of human MKN45 cells after 48 hrs by sulforhodamine B colorimetric assay; conditions: MKN-45, 48 h, read-out: pGI50 (converted)
[28] = Growth inhibition of human MKN74 cells after 48 hrs by sulforhodamine B colorimetric assay; conditions: MKN-74, 48 h
[29] = test system: DU-145; experiment: Growth inhibition of human DU145 cells after 48 hrs by sulforhodamine B colorimetric assay; conditions: DU-145, 48 h, read-out: pGI50 (converted)
[30] = Growth inhibition of human PC3 cells after 48 hrs by sulforhodamine B colorimetric assay; conditions: PC-3, 48 h, read-out: pGI50 (converted)
[31] = Growth inhibition of human BSY1 cells after 48 hrs by sulforhodamine B colorimetric assay; conditions: BSY-1, 48 h
[32] = Growth inhibition of human HBC5 cells after 48 hrs by sulforhodamine B colorimetric assay; conditions: HBC5, 48 h
[33] = test system: MDA-MB-231; experiment: Growth inhibition of human MDA-MB-231 cells after 48 hrs by sulforhodamine B colorimetric assay; conditions: MDA-MB-231, 48 h, read-out: pGI50 (converted)
[34] = test system: SNB-75; experiment: Growth inhibition of human SNB75 cells after 48 hrs by sulforhodamine B colorimetric assay; conditions: SNB-75, 48 h, read-out: pGI50 (converted)
[35] = Growth inhibition of human HCC2998 cells after 48 hrs by sulforhodamine B colorimetric assay; conditions: HCC 2998, 48 h, read-out: pGI50 (converted)
[36] = test system: KM12; experiment: Growth inhibition of human KM12 cells after 48 hrs by sulforhodamine B colorimetric assay; conditions: KM12, 48 h, read-out: pGI50 (converted)
[37] = test system: HT-29; experiment: Growth inhibition of human HT-29 cells after 48 hrs by sulforhodamine B colorimetric assay; conditions: HT-29, 48 h, read-out: pGI50 (converted)
[38] = Growth inhibition of human HCT15 cells after 48 hrs by sulforhodamine B colorimetric assay; conditions: HCT-15, 48 h, read-out: pGI50 (converted)
[39] = Growth inhibition of human HCT116 cells after 48 hrs by sulforhodamine B colorimetric assay; conditions: HCT-116, 48 h

For CCCCCCCCCCCC[C@@H](O)[C@H]1CC[C@H]([C@H](O)CCCCCCCCCCNC(=O)c2ccsc2)O1, the GI50 [1] was 0.2 µM, the GI50 [2] was 1 µM and the GI50 [3] was > 100 µM. For the same compound, the GI50 [4] was 2 µM, the GI50 [5] was > 100 µM and the GI50 [6] was > 100 µM. For the same compound, the GI50 [7] was > 100 µM, the GI50 [8] was 2 µM and the GI50 [9] was > 100 µM. The GI50 [10] was > 100 µM, the GI50 [11] was 1 µM and the GI50 [12] was > 100 µM. The GI50 [13] was > 100 µM.

For CN(C)c1cccc2c(S(=O)(=O)NCCCCCCCCC[C@@H](O)[C@H]3CC[C@H]([C@H](O)CCCCCCCCCCNC(=O)c4ccsc4)O3)cccc12, the GI50 [1] was 36.3 µM, the GI50 [14] was > 100 µM and the GI50 [2] was 25.7 µM. The GI50 [15] was > 100 µM, the GI50 [3] was > 100 µM and the GI50 [4] was > 100 µM. The GI50 [16] was 0.0302 µM, the GI50 [17] was 0.676 µM and the GI50 [18] was > 100 µM. The GI50 [19] was > 100 µM, the GI50 [20] was > 100 µM and the GI50 [21] was > 100 µM. For the same compound, the GI50 [5] was > 100 µM, the GI50 [6] was > 100 µM and the GI50 [22] was > 100 µM. The GI50 [23] was > 100 µM, the GI50 [24] was > 100 µM and the GI50 [25] was 0.0363 µM. The GI50 [26] was 0.0363 µM, the GI50 [27] was > 100 µM and the GI50 [28] was 33.1 µM. The GI50 [29] was > 100 µM, the GI50 [30] was > 100 µM and the GI50 [7] was > 100 µM. For the same compound, the GI50 [31] was 1.2 µM, the GI50 [32] was 0.363 µM and the GI50 [8] was 2.88 µM. The GI50 [33] was > 100 µM, the GI50 [9] was > 100 µM and the GI50 [10] was > 100 µM. For the same compound, the GI50 [11] was 12.9 µM, the GI50 [12] was > 100 µM and the GI50 [34] was > 100 µM. For the same compound, the GI50 [13] was > 100 µM, the GI50 [35] was > 100 µM and the GI50 [36] was > 100 µM. For the same compound, the GI50 [37] was > 100 µM, the GI50 [38] was > 100 µM and the GI50 [39] was 0.302 µM.

— ChEMBL document CHEMBL3397003, “Synthesis of dansyl-labeled probe of thiophene analogue of annonaceous acetogenins for visualization of cell distribution and growth inhibitory activity toward human cancer cell lines” (2015)
